According to PubChem BioAssay (NCI):
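Exposure lasted 48 hours, with cells grown in 96-well plates and compounds tested at five concentrations. TGI marks complete inhibition of growth.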

Key:
Assay in all cases: NCI tumour cell line growth inhibition, 48 h
[1] = tested on: ACHN renal
[2] = tested on: BT-549 breast
[3] = tested on: CCRF-CEM leukemia
[4] = tested on: COLO 205 colon
[5] = tested on: HCT-15 colon
[6] = tested on: IGROV1 ovarian
[7] = tested on: NCI-H226 lung
[8] = tested on: NCI-H23 lung
[9] = tested on: RPMI-8226 leukemia
[10] = tested on: SF-295 CNS
[11] = tested on: SF-539 CNS
[12] = tested on: SK-MEL-2 melanoma
[13] = tested on: SN12C renal
[14] = tested on: SNB-19 CNS
[15] = tested on: SNB-75 CNS
[16] = tested on: SR leukemia
[17] = tested on: U251 CNS
[18] = tested on: UO-31 renal
[19] = tested on: SK-MEL-28 melanoma

Structure (SMILES) | TGI [1] | TGI [2] | TGI [3] | TGI [4] | TGI [5] | TGI [6] | TGI [7] | TGI [8] | TGI [9] | TGI [10] | TGI [11] | TGI [12] | TGI [13] | TGI [14] | TGI [15] | TGI [16] | TGI [17] | TGI [18] | TGI [19]
Cc1cc(NS(=O)(=O)c2ccc(N=[N+]([O-])c3ccc(S(=O)(=O)Nc4cc(C)on4)cc3)cc2)no1 | > 100 µM | > 100 µM | > 100 µM | > 100 µM | > 100 µM | > 100 µM | > 100 µM | > 100 µM | > 100 µM | > 100 µM | > 100 µM | > 100 µM | > 100 µM | > 100 µM | > 100 µM | > 100 µM | > 100 µM | > 100 µM | 
C=C1C(=O)O[C@H]2C1C[C@H](O)[C@@]1(C)OC1CC[C@@]1(C)O[C@H]21 (some centres undefined) | 34.2 µM | 26.9 µM | 8.68 µM | 16.9 µM | 40.3 µM | 31 µM |  | 39.2 µM | 30.2 µM | > 100 µM |  | 55.3 µM | 32.4 µM |  | > 100 µM | 40.5 µM | > 100 µM | 31 µM | 35.9 µM
COC(=O)[C@@](NC(=O)OCc1ccccc1)([C@H](C)O)C(F)(F)F | > 100 µM | > 100 µM | > 100 µM | > 100 µM | > 100 µM | > 100 µM | > 100 µM | > 100 µM | > 100 µM | > 100 µM |  | > 100 µM |  | > 100 µM | > 100 µM | > 100 µM | > 100 µM | > 100 µM | > 100 µM
CN1CCc2ccccc2C(C(=O)c2ccc3c(c2)OCO3)C1=O (centres undefined) | > 100 µM |  | > 100 µM | > 100 µM | > 100 µM | > 100 µM | > 100 µM | > 100 µM | > 100 µM |  |  | > 100 µM | > 100 µM | > 100 µM | > 100 µM |  | > 100 µM | > 100 µM | > 100 µM
COc1ccc(COCC[C@H](C)OC2OC(CO)C(O)C(O)C2O)cc1 (some centres undefined) | > 100 µM | > 100 µM | > 100 µM | > 100 µM | > 100 µM | > 100 µM | > 100 µM | > 100 µM | > 100 µM | > 100 µM | > 100 µM | > 100 µM | > 100 µM | > 100 µM | > 100 µM | > 100 µM | > 100 µM | > 100 µM | > 100 µM
CCCNCCCCC(NC(C)=O)C(=O)NCc1ccccc1 (centres undefined) | > 100 µM |  | > 100 µM | > 100 µM | > 100 µM | > 100 µM | > 100 µM | > 100 µM | > 100 µM | > 100 µM | > 100 µM | > 100 µM | > 100 µM | > 100 µM | > 100 µM |  | > 100 µM | > 100 µM | > 100 µM
CC(C)(O)c1cc2c(cc1C(C)(C)O)-c1ccccc1-2 | > 100 µM | > 100 µM | > 100 µM | > 100 µM | > 100 µM | > 100 µM | > 100 µM |  | > 100 µM | > 100 µM | > 100 µM | > 100 µM | > 100 µM | > 100 µM | > 100 µM | > 100 µM | > 100 µM |  | > 100 µM
O=[N+]([O-])c1cccc(Nc2nc(Cl)nc(Cl)n2)c1 | > 100 µM |  | > 100 µM | > 100 µM | > 100 µM |  | > 100 µM | > 100 µM | > 100 µM | > 100 µM | > 100 µM | > 100 µM | > 100 µM | > 100 µM | > 100 µM | > 100 µM | > 100 µM | > 100 µM | > 100 µM
O=C(NCCN1CCCCC1)c1cccc(I)c1 | > 100 µM | > 100 µM | > 100 µM |  | > 100 µM | > 100 µM | > 100 µM | > 100 µM | > 100 µM |  | > 100 µM |  | > 100 µM | > 100 µM | > 100 µM | > 100 µM | > 100 µM | > 100 µM | > 100 µM
COC(=O)/C=C(\C)CCC1SC1(C)C (centres undefined) | > 100 µM |  | > 100 µM | > 100 µM | > 100 µM | > 100 µM | > 100 µM | > 100 µM | > 100 µM | > 100 µM | > 100 µM | > 100 µM | > 100 µM | > 100 µM | > 100 µM |  | > 100 µM | > 100 µM | > 100 µM
Cc1ccc(-c2cc(-c3ccccc3)c(C#N)c(=O)[nH]2)cc1 | > 100 µM |  | > 100 µM | > 100 µM | > 100 µM | > 100 µM | > 100 µM | > 100 µM | > 100 µM | > 100 µM | > 100 µM |  | > 100 µM | > 100 µM | > 100 µM | > 100 µM | > 100 µM | > 100 µM | > 100 µM
COc1ccc(C2Cc3cc(OC)c(OC)c(OC)c3C2)cc1 (centres undefined) | > 100 µM |  | > 100 µM | > 100 µM | > 100 µM | > 100 µM | > 100 µM | > 100 µM | 98.9 µM | > 100 µM | > 100 µM | > 100 µM | > 100 µM | > 100 µM | 84.8 µM |  | > 100 µM | 64.8 µM | > 100 µM
COc1cc([C@@H]2c3cc4c(cc3[C@@H](NCc3cccc(C#N)c3)C3COC(=O)[C@@H]32)OCO4)cc(OC)c1O (some centres undefined) | 1.58 µM |  | > 100 µM | 21.4 µM | 3.17 µM | 15.2 µM | 2.4 µM | 1.76 µM | 7.33 µM | 7 µM | 1.94 µM | 8.78 µM | 2.93 µM | 7.74 µM | 4.45 µM |  | 1.93 µM | 5.52 µM | 46.1 µM
CC(Oc1ccc(Cl)cc1Cl)C(=O)NN1C(=O)CC(=O)N(c2ccccc2)C1=S (centres undefined) | > 100 µM | > 100 µM |  | > 100 µM | > 100 µM | > 100 µM | > 100 µM | > 100 µM | > 100 µM | > 100 µM | > 100 µM | > 100 µM | > 100 µM | > 100 µM | > 100 µM | 22.4 µM | > 100 µM | > 100 µM | > 100 µM
C=C1C2=C(CCCC2)C(=O)OC12CCCCC2 | > 100 µM |  | > 100 µM | > 100 µM | > 100 µM | > 100 µM | > 100 µM | > 100 µM | > 100 µM | > 100 µM | > 100 µM | > 100 µM | > 100 µM | > 100 µM | > 100 µM | > 100 µM | > 100 µM | > 100 µM | > 100 µM
CCCc1cc(OC(=O)c2c(O)cc(OC)cc2CCC)cc(O)c1C(=O)O | 80.2 µM |  | 95.4 µM | 79.2 µM |  | > 100 µM |  | 42.8 µM | 60.7 µM |  | 34.7 µM | 47.4 µM |  | > 100 µM | 73.4 µM |  | 68.4 µM | 35.9 µM | 70.6 µM
CCCCCCCCC(O)c1ccc(/C=C\C(O)CCCC(=O)O)s1 (centres undefined) | > 100 µM |  | > 100 µM | > 100 µM | > 100 µM | > 100 µM | > 100 µM | > 100 µM | > 100 µM | > 100 µM | > 100 µM | > 100 µM | > 100 µM | > 100 µM | > 100 µM | > 100 µM | > 100 µM | > 100 µM | > 100 µM
COc1ccc2[nH]c3c(c2c1)[C@H]1CCC(C(C)(C)C)C[C@H]1[C@H]1C(=O)N(c2ccccc2)C(=O)[C@@H]31 (some centres undefined) | 18.4 µM |  | > 52 µM | > 79.2 µM | > 100 µM | > 100 µM | 81.9 µM | > 52.1 µM | > 100 µM | > 42.5 µM | 18.1 µM | 58 µM | > 44.5 µM | > 51.7 µM | 14.6 µM |  | 19.2 µM | 97.5 µM | > 100 µM
CCOC(=O)c1nc2ccc(C(F)(F)F)cc2nc1Nc1ccc(OC)cc1 | > 100 µM | 86.4 µM | > 100 µM | > 100 µM | > 100 µM | > 100 µM | > 100 µM | > 100 µM | > 100 µM | 77.6 µM | 90.1 µM | > 100 µM |  | > 100 µM | > 100 µM | > 100 µM | > 100 µM | > 100 µM | > 100 µM
CCCCOC/N=C(/N)NC#N | > 100 µM |  |  | > 100 µM | 43.8 µM | > 100 µM | > 100 µM | > 100 µM | > 100 µM | > 100 µM | > 100 µM | > 100 µM | > 100 µM | > 100 µM | > 100 µM | 63.1 µM | > 100 µM | > 100 µM | > 100 µM
COc1ccc(-c2nc(-c3cnccn3)n(C3OC(CO)C(O)C3O)n2)cc1 (centres undefined) | > 10 µM | > 10 µM | > 10 µM |  | > 10 µM |  | > 10 µM | > 10 µM |  | > 10 µM | > 10 µM | > 10 µM | > 10 µM | > 10 µM | > 10 µM | > 10 µM | > 10 µM | > 10 µM | 
